Here are results for three compounds from PMC6069808, “Biochemical and structural features of diverse bacterial glucuronoyl esterases facilitating recalcitrant biomass conversion” (Biotechnology for Biofuels, 2018).

Assay in all cases: uronate dehydrogenase-coupled assay (K-URONIC), NADH formation
One assay has as its system T1, OtCE15D.
T1 construct: recombinant in E. coli Rosetta2(DE3), N-terminal His6 tag and TEV site (modified pET-28a)
The class given is biochemical, Opitutus terrae. As to conditions: pH 7.5, 25 °C, 50 mM sodium phosphate, ≤10% DMSO.

For another assay, the system named is T2, OtCE15C.
T2 construct: recombinant in E. coli BL21(DE3), N-terminal His6 tag and TEV site (modified pET-28a)
The class given is biochemical, Opitutus terrae. The conditions noted are these: pH 7.5, 25 °C, 50 mM sodium phosphate, ≤10% DMSO.

The test system of another assay is T3, SuCE15A.
T3 construct: recombinant in E. coli BL21(DE3), N-terminal His6 tag and TEV site (modified pET-28a)
The class given is biochemical, Candidatus Solibacter usitatus. As to conditions: pH 7.5, 25 °C, 50 mM sodium phosphate, ≤10% DMSO.

Another assay deals with T4, OtCE15B.
T4 construct: recombinant in E. coli BL21(DE3), N-terminal His6 tag and TEV site (modified pET-28a); Tyr in place of the conserved Arg next to catalytic Ser
The class given is biochemical, Opitutus terrae. The conditions noted are these: pH 7.5, 25 °C, 50 mM sodium phosphate, ≤10% DMSO. From the text:
uronate dehydrogenase-coupled assay (K-URONIC), NADH formation on OtCE15B

Another assay has as its target T5, SlCE15B (Spirosoma linguale, UniProt D2QTM2).
T5 construct: gene Slin_6195; recombinant in E. coli with tig coexpression (pTf16), N-terminal His6 tag and TEV site (modified pET-28a)
The class given is biochemical. As to conditions: pH 6.5, 25 °C, 50 mM sodium phosphate, ≤10% DMSO; range covers four enzymes.

T5 sequence (D2QTM2 entry or part of it): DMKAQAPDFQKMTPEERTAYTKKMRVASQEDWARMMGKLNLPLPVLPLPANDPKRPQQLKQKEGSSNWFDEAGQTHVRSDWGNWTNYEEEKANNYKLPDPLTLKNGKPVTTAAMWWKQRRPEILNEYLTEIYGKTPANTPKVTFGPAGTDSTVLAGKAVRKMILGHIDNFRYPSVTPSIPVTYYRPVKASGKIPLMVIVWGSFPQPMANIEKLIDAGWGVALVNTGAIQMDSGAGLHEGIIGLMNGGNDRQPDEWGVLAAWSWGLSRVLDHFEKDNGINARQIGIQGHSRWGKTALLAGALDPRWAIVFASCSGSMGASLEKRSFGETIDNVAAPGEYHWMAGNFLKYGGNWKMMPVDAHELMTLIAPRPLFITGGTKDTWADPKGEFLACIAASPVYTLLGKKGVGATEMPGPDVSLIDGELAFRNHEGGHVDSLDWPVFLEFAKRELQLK

Usually Km stands for the concentration of substrate that gives half-maximal velocity. For `C=CCOC(=O)[C@H]1OC(O)[C@H](O)[C@@H](O)[C@@H]1O` (some centres unmarked) [AllylGlcA], the Km was 2080 ± 90 µM in the assay with OtCE15D, 2210 ± 120 µM with OtCE15C and 1240 ± 170 µM with SuCE15A.

As for `COC(=O)[C@H]1OC(O)[C@H](O)[C@@H](O)[C@@H]1O` (some centres unmarked) [MeGlcA], the Michaelis constant (Km) worked out at 12300 ± 710 µM in the assay on OtCE15D, 4010 ± 55 µM with OtCE15C and 4310 ± 400 µM with SuCE15A.

For `O=C(OCc1ccccc1)[C@H]1OC(O)[C@H](O)[C@@H](O)[C@@H]1O` (some centres unmarked) [BnzGlcA], the Km was 400 to 600 µM in the assay on OtCE15D (range covers four enzymes); 400 to 600 µM in the assay on OtCE15C (range covers four enzymes); 7940 ± 870 µM in the assay on OtCE15B; 400 to 600 µM in the assay on SuCE15A (range covers four enzymes); 400 to 600 µM on SlCE15B.
